Type in all cases: biochemical
The target in test [1] is T1, LpxH (UDP-2,3-diacylglucosamine pyrophosphatase) (Escherichia coli, UniProt P43341). Description: AaLpxE-coupled malachite green assay, residual activity at […].
Test [2] has as its target T1, LpxH (UDP-2,3-diacylglucosamine pyrophosphatase). Described as above. The source holds these as a separate data set.
For test [3] the target is unchanged. As to the kind of experiment: AaLpxE-coupled malachite green assay, dose-response.

The text below walks through data of PMC6730544 (ACS infectious diseases, 2019).

Structures are written as SMILES.

T1 sequence (P43341 whole entry): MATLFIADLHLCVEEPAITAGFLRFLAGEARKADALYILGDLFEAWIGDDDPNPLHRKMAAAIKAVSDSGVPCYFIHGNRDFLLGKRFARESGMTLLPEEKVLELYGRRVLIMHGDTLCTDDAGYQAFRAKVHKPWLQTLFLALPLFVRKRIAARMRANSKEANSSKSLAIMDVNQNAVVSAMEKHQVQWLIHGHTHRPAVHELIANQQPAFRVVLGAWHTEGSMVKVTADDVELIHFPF

As to `CC(=O)N1CCc2cc(S(=O)(=O)N3CCN(c4cccc(Br)c4)CC3)ccc21` [3a, JH-LPH-06], in test [1] (read-out: 1 μM compound / Percentage Activity), the activity at 1 µM is 26 ± 8%.

Take `CC(=O)N1CCc2cc(S(=O)(=O)N3CCN(c4ccccc4)CC3)ccc21` [3b, JH-LPH-09]: the “10 μM compound / Percentage Activity” value in test [2] was determined as 32 ± 9.

With `CCc1cccc(N2CCN(S(=O)(=O)c3ccc4c(c3)CCN4C(C)=O)CC2)c1` [3c, JH-LPH-24], the “10 μM compound / Percentage Activity” value in test [2] was found to be 21 ± 2.

With `CC(=O)N1CCc2cc(S(=O)(=O)N3CCN(c4cccc(C(C)C)c4)CC3)ccc21` [3d, JH-LPH-26], the “10 μM compound / Percentage Activity” value in test [2] turned out to be 29 ± 3.

For the molecule `CC(=O)N1CCc2cc(S(=O)(=O)N3CCN(c4cccc(-c5ccccc5)c4)CC3)ccc21` [3e, JH-LPH-25], the “1 μM compound / Percentage Activity” value in test [1] is given as 45 ± 10.

For the molecule `COC(=O)CCC(=O)N1CCc2cc(S(=O)(=O)N3CCN(c4cccc(Br)c4)CC3)ccc21` [22a, JH-LPH-07], the “1 μM compound / Percentage Activity” value in test [1] was 53 ± 11.

For the molecule `O=C(O)CCC(=O)N1CCc2cc(S(=O)(=O)N3CCN(c4cccc(Br)c4)CC3)ccc21` [22b, JH-LPH-08], in test [1], the “1 μM compound / Percentage Activity” value turned out to be 52 ± 11.

What is called IC50 is the midpoint of a concentration-inhibition curve. High values mean weaker potency, low ones greater potency. Take `CC(=O)N1CCc2cc(S(=O)(=O)N3CCN(c4cccc(C(F)(F)F)c4)CC3)ccc21` [AZ1]: the IC50 in test [3] worked out at 147 ± 2 nM.

Take `CC(=O)Nc1ccc(S(=O)(=O)N2CCN(c3cccc(C(F)(F)F)c3)CC2)cc1` [compound 11, JH-LPH-15]: in test [2] (read-out: 10 μM compound / Percentage Activity), the activity at 10 µM came out at 30 ± 11%.
